Where “and” joins values, the source holds several entries; their conditions need not be identical. Equal entries are not always repeated.
Tests used:
A549 cells [1] = assay: Galuminox uptake in LPS-treated or serum/glucose deprived A549 cells with ROS-attenuating drugs; assay type: cell-based, human; conditions: LPS-treated or nutrient deprived A549 cells; Galuminox 20 μM 60 min
Description: For evaluation of therapeutic effects of drugs, such as Carvedilol (CAR), Dexrazoxane (DEX), and mitoTempo (MT) on either serum/glucose deprived media- or LPS-induced superoxide production, A549 cells were incubated with either LPS (1 μg/mL) or serum/glucose deprived (starvation) media for 24 h, and thereafter incubated with Carvedilol, Dexrazoxane, and mitoTempo 24 h at 37° C. Next day, media was removed from wells, cells were carefully rinsed with PBS (2×200 μL), fresh media (200 μL) was added, and cells were incubated with Galuminox (20 μM) at 37° C. for 60 min. For controls, untreated cells were incubated with Galuminox (20 μM) under identical conditions. Thereafter, fluorescence images were acquired, and cellular uptake was quantified as described above.

A549 cells [2] = assay: Live cell fluorescence imaging, cellular accumulation in LPS-treated A549 cells; assay type: cell-based, human; conditions: LPS 1 μg/mL 24 h
Description: Human alveolar basal epithelial (A549) adenocarcinoma cells were grown in Dulbecco's Modified Eagle Medium (DMEM) supplemented with 1-glutamine (2 mM), penicillin/streptomycin (200 IU.) and heat-inactivated fetal calf serum (10%). The cells were grown at 37° C. under a 5% CO2 atmosphere.
Live cell fluorescence imaging studies were performed at Washington University Center for Cellular Imaging (WUCCI). For imaging studies, A549 cells or their mt-Keima transfected counterparts were plated onto borosilicate 8-well chambered coverglass (Labtek) and allowed to grow to approximately 70% confluence at 37° C. under 5% CO2 atmosphere in the culture media (200 μL) and treated with LPS (1 μg/mL) for 24 h. Following LPS treatments, all wells were rinsed with fresh media. […] Images were processed and analyzed using the ImageJ software package (NIH). […] For analysis, ROIs were drawn on cells of both channels, scatter plots were obtained, and Pearson's Correlation Coefficients (PCC) were determined as described previously (K. W. Dunn, M. M. Kamocka, J. H. McDonald. A practical guide to evaluating colocalization in biological microscopy. Am. J. Physiol. Cell Physiol., 300 (2011), pp. C723-C742.).

[3] = test system: ROS activity in acutely injured lungs; assay: Preclinical PET/CT imaging, mouse model of LPS-mediated acute lung injury; assay type: in vivo; conditions: for Standard Uptake Value (SUV) in lungs: n=4, frames 45-60 min
Description: All animal procedures were approved by the Washington University Animal Studies Committee. Imaging and biodistribution studies were performed in C57Bl6 mice (average weight, 24 g). Male mice (n=4) were treated either with LPS at a dose of 5 μg/g or vehicle (saline) 24 h prior to imaging/biodistribution studies. For these studies, mice were anesthetized with isoflurane (2.0%) via an induction chamber and maintained with a nose cone. After anesthetization, the mice were secured in a supine position and placed in an acrylic imaging tray. Following intravenous tail-vein administration of ^68Ga-Galuminox (100 μL; 100 μCi; 2% ethanol in saline, 3.7 MBq), dynamic preclinical PET scans were performed over 60 min, using Inveon PET/CT scanner (Siemens Medical Solutions). PET data were stored in list mode, and reconstruction was performed using a 3D-OSEM method with detector efficiency, decay, dead time, attenuation, and scatter corrections applied. For anatomical visualization, PET images were also co-registered with CT images from an Inveon PET/CT scanner. ROIs were drawn over the lung, and standard uptake values (SUV) were calculated as the mean radioactivity per injected dose per animal weight.

[4] = Biodistribution studies (post preclinical imaging); assay type: in vivo, C57Bl6 mice; conditions: for Biodistribution, Bladder / Biodistribution, Blood / Biodistribution, Bone / Biodistribution, Brain / Biodistribution, Colon / Biodistribution, Fat / Biodistribution, Heart / Biodistribution, Intestine / Biodistribution, Kidney / Biodistribution, Liver / Biodistribution, Lung / Biodistribution, Muscle: 60 min, mean, n=4
Description: All animal procedures were approved by the Washington University Animal Studies Committee. Following microPET/CT imaging, mice (n=4) were euthanized by cervical dislocation. Blood samples were obtained by cardiac puncture, organs then harvested rapidly, and all tissue samples analyzed for γ-activity using Beckman Gamma 8000 counter. All samples were decay-corrected to the time the γ-counter was started. Standard samples were counted with the organs for each animal and represent […] of the injected dose. An additional dose was diluted into milliQ water (100 mL) and aliquots (1 mL) were counted with each mouse. Data were quantified as the percentage injected dose (% ID) per gram of tissue (tissue kBq (injected kBq)^−1 (g tissue)^−1×100) in Table 2, shown below.

left transplanted lung = assay: MicroPET/CT imaging in mouse lung transplant model of CLAD; assay type: in vivo, mice; conditions: 4 days post left lung transplant; PET/CT 30 min post injection, 20 min static scan
Description: The next experiment was an evaluation of Galuminox in a mouse lung transplant model of CLAD. Allogeneic (FVB) left lung recipients (B16 mice) were treated with immunosuppression agents CD40L and CTLA4Ig to induce tolerance. Despite treatment with immunosuppressant drugs, allogeneic transplants show OB lesions as a function of time, normally defined as early stages of disease progression (early CLAD) and late stages of disease progression (fulminant CLAD).
4 days post left lung transplant from FVB mice (donor) into B16 mice (acceptor), both transplanted mice and un-transplanted control counterparts were imaged using PET/CT 30 minutes post tail-vein administration of ^68Ga-Galuminox using static acquisition scan of 20 min (FIG. 12A). PET images were co-registered with CT for anatomical correlation. Standard Uptake Values (SUVs) were determined by drawing ROI, and counts were normalized to injected dose and weights of animals (FIG. 12B).

[5] = LPS vs saline, 1 h post injection

COc1ccccc1OCCNCC(O)COc1cccc2[nH]c3ccccc3c12 (stereo not drawn) [CAR, Carvedilol]
Galuminox probe uptake in the presence of the drug compared to control A549 cells (A549 cells [1]): significantly decreased

C[C@@H](CN1CC(=O)NC(=O)C1)N1CC(=O)NC(=O)C1 [DEX, Dexrazoxane]
Galuminox probe uptake in the presence of the drug compared to control A549 cells (A549 cells [1]): significantly decreased

CC1(C)CC(NC(=O)C[P+](c2ccccc2)(c2ccccc2)c2ccccc2)CC(C)(C)N1[O] [Mito-Tempo]
Galuminox probe uptake in the presence of the drug compared to control A549 cells (A549 cells [1]): significantly decreased

Nc1ccc2c(c1)C(c1ccccc1)N(CCCCCC[P+](c1ccccc1)(c1ccccc1)c1ccccc1)c1cc(N)ccc1-2.[I-] (stereo not drawn) [MitoSOX]
probe fluorescence, LPS stimulated vs untreated A549 control cells (A549 cells [2]): higher fluorescence

O=C(CNC(=S)Nc1ccc(CC2CN3CCN4CCN2CC(=O)[O][68Ga]([O]C(=O)C4)[O]C(=O)C3)cc1)Nc1cccc2c(=O)[nH][nH]c(=O)c12 (stereo not drawn) [^68Ga-Galuminox]
SUV time-activity curves, retention in lungs of LPS-treated mice ([3]; 0-60 min dynamic PET): consistently higher and stable retention
Standard Uptake Value (SUV) in lungs ([3]; LPS-treated mice (5 μg/g, 24 h)): 12.9±1.85
mode of excretion (PET pharmacokinetics) ([3]; mouse, in vivo): dominant renal mode of probe excretion
Standard Uptake Value (SUV) in lungs ([3]; saline (vehicle) only treated mice): 2.62±0.48
excretion profiles (biodistribution) ([4]; 1 h post injection): both hepatobiliary- and renal-modes of excretion
Biodistribution, Bladder ([4]; Control (saline)): 162.956 % ID/g
Biodistribution, Blood ([4]; Control (saline)): 2.82±0.88 % ID/g and 2.822 % ID/g
Biodistribution, Bone ([4]; Control (saline)): 1.0±0.34 % ID/g and 1.002 % ID/g
Biodistribution, Brain ([4]; Control (saline)): 0.5693 % ID/g
Biodistribution, Colon ([4]; Control (saline)): 0.8617 % ID/g
Biodistribution, Fat ([4]; Control (saline)): 0.6117 % ID/g
Biodistribution, Heart ([4]; Control (saline)): 2.381 % ID/g
Biodistribution, Intestine ([4]; Control (saline)): 4.286 % ID/g
Biodistribution, Kidney ([4]; Control (saline)): 13.0965 % ID/g
Biodistribution, Liver ([4]; Control (saline)): 6.14±0.66 % ID/g and 6.138 % ID/g
Biodistribution, Lung ([4]; Control (saline)): 39.7±19.3 % ID/g and 39.7 % ID/g
Biodistribution, Muscle ([4]; Control (saline)): 1.084 % ID/g
Biodistribution, Bladder ([4]; LPS treated): 5.893 % ID/g
Biodistribution, Blood ([4]; LPS treated): 3.96±1.83 % ID/g and 3.96 % ID/g
Biodistribution, Bone ([4]; LPS treated): 2.14±0.57 % ID/g and 2.138 % ID/g
Biodistribution, Brain ([4]; LPS treated): 0.2628 % ID/g
Biodistribution, Colon ([4]; LPS treated): 0.2924 % ID/g
Biodistribution, Fat ([4]; LPS treated): 0.3021 % ID/g
Biodistribution, Heart ([4]; LPS treated): 1.073 % ID/g
Biodistribution, Intestine ([4]; LPS treated): 1.314 % ID/g
Biodistribution, Kidney ([4]; LPS treated): 3.048 % ID/g
Biodistribution, Liver ([4]; LPS treated): 10.5±1.68 % ID/g and 10.46 % ID/g
Biodistribution, Lung ([4]; LPS treated): 147.9±25.8 % ID/g and 147.8875 % ID/g
Biodistribution, Muscle ([4]; LPS treated): 0.294 % ID/g
bone retention, LPS vs saline [4, 5]: 2.1 fold
higher retention in lungs of LPS treated mice vs saline-only (biodistribution) [4, 5]: 4 fold
higher retention in the blood of LPS treated mice vs saline [4, 5]: 1.4 fold
liver retention, LPS vs saline [4, 5]: 1.7 fold
higher specific retention in lungs of LPS treated mice (lung normalized to blood) ([4]; lung 4 fold / blood 1.4 fold): 3 fold and 2.85 fold
higher uptake in the left transplanted lung compared with untransplanted mice (SUV) (left transplanted lung): 1.5 fold

From patent US12569576B2, “Compositions and methods for measuring oxidative stress” (Washington University, priority 2020, dated 2026)
